Assay results from patent US10821117B2, “Estrogen therapy for brain gray matter atrophy and associated disability” (The Regents of the University of California, priority 2014, dated 2020).

Assays:
[1] = design: species or system human; details: in vivo
Text: Safety assessments, including clinical, blood laboratory safety testing and assessments of estriol levels, occurred at months 0, 3, 6, 12, 18, and 24. On study blood tests included complete blood count (CBC) with differential and platelets; chemistry panel including sodium, potassium, creatinine, BUN, glucose, total protein, albumin, bilirubin (total), alkaline phosphatase, AST (SGOT), and ALT (SGPT), and lipid profile (HDL, LDL and triglycerides, cholesterol. Gynecologic exams were done at month 0, 6, 18 and at month 24 exit, with uterine ultrasounds at months 6, 18 and at month 24 exit. Mammograms were done in screening and at month 24 exit. Adverse event analysis was based on the percentage of patients who discontinued the study and the percentage of patients who discontinued the study possibly due to adverse events.
The rate of discontinuation was similar between groups (FIG. 1). A total of 60 patients (73.2%) in the Estriol plus GA group and 56 (73.7%) in the Placebo plus GA group completed the 24 month study treatment duration. Of the 158 patients, 15.8% discontinued the study during the first year (7.6% in the Estriol plus GA group and 8.2% in the Placebo plus GA group), and an additional 10.7% discontinued the study during the second year (6.3% and 4.4%, respectively). […] The most common reasons for discontinuation were lost to follow up or patient's decision based on family issues or time constraints.

[2] = tested on: relapsing remitting multiple sclerosis patients; assay: Brain MRI enhancing lesions and brain volumes (pairwise Jacobian integration); format: in vivo, human
Experimental: Linear mixed effects model was carried out to compare the percent change in whole gray matter and cortical gray matter between treatment groups. For the exploratory endpoints of EDSS, PASAT, and brain volume measures, linear mixed effects model was used to compare treatment groups at 12 and 24 months. Linear mixed effects model was carried out to evaluate the association between PASAT change and percent brain volume change.
• For Number of Enhancing Lesions, the data in this column are E+GA vs. P+GA mean of lesions number ratio (95% CI) and p-value based on mixed effect negative binomial regression model. • For Lesion Activity on Brain MRI, the data in this column are E+GA vs. P+GA odds ratio (95% CI) and p-value based on mixed effect logistic regression model. MRI Methodologies
Dual-echo fast spin echo: TR10000, TE12/95, 50 slices, 1×1×3 mm. Fluid attenuated inversion recovery (FLAIR): TR10380, TE88, T188, T12500, 50 slices, 1×1×3 mm. Minor changes were allowed to accommodate different platforms and field strengths at each site. MRI data in Dicom format were fully anonymized prior to transfer and then uploaded to the central MRI reading center database. Prior to study onset, each site provided a dummy scan utilizing the standardized sequences for review by the central MRI reading center to verify scan quality and fidelity. Quality control was maintained at each site using standard procedures for clinical scanners (daily phantoms, stability testing). Quarterly phantoms were collected from 12 of the 15 sites, most using the standard American College of Radiology (ACR) phatom. One site upgraded from a Siemens 1.5T to a 3.0T in November 2013, resulting in the acquisition of one month 24 scan on the new scanner. One site upgraded from a Phillips Achieva 3.0T to a Pillips Intera 3.0T after the first subject completed month 24. All subsequent studies were performed on the Intera.
MRI brain, whole gray matter, whole white matter and cortical gray matter volumes were determined using a pairwise Jacobian integration (PJI) method. Pre-processing for structural T1-weighted images included 1) N3 non-uniformity correction, 2) histogram-based intensity normalization, 3) linear standard space registration using ICBM 2009c nonlinear symmetric template, 4) patch-based brain extraction, and 5) lesion-inpainting. Inputs to PJI were a pair of baseline and follow-up pre-processed structural T1-weighed images. The PJI consisted of 1) linear skull-constrained symmetric registration, 2) halfway transformation and resampling, 3) nonlinear symmetric registration using ANTS, and 4) voxelwise Jacobian determinant calculation on the warp field. Whole gray matter and whole white matter tissue masks were generated by SPM8 Segment function. Additional nonlocal means denoising was applied. For whole brain tissue masks, the whole gray matter and whole white matter masks were combined. For cortical gray matter mask, a standard cortical mask was nonlinearly transformed and merged with gray matter mask. The standard template was the ICBM (ICBM 2009c nonlinear symmetric version), and the nonlinear registration was performed by ANTS. Finally, the Jacobian determinants were averaged within the masks for percent volume change in cortical gray matter, whole gray matter, whole white matter, and whole brain.

[3] = negative value indicates improvement
[4] = negative value indicates worsening

Substance: glatiramer acetate [Placebo + GA]
- Adverse events leading to discontinuation - (%) [1]: (6%)
- Endometrial biopsies performed - (%) [1]: (8) %
- Endometrial thickness >8 mm (ultrasound) - (%) [1]: (36) %
- Fibrocystic disease on clinical exam, number [1]: 4
- Fibrocystic disease on clinical exam, value in parentheses [1]: (5)
- Fibroids (ultrasound) - (%) [1]: (11) %
- Mammogram with malignancy [1]: 0
- Vaginal infection - no. of events [1]: occurred more
- Lesion activity on Brain MRI - proportion of patients with enhancing lesion, Month 12 % (95% CI) ([2]; Month 12): 21.0 (10.8-31.1) %
- Lesion activity on Brain MRI - proportion of patients with enhancing lesion, Month 24 % (95% CI) ([2]; Month 24): 14.6 (5.2-23.9) %
- cortical gray matter volume change from baseline ([2]; month 12, FIG. 7C, mean percent change from baseline): −0.74%
- whole gray matter volume change from baseline ([2]; month 12, FIG. 7D, mean percent change from baseline): −0.68%
- Enhancing Lesion Volume, Change from baseline at Mon 12, Mean ± SD [2, 3]: −18.7 ± 184
- Enhancing Lesion Volume, Change from baseline at Mon 12, Median [2, 3]: 0
- Enhancing Lesion Volume, Change from baseline at Mon 24, Mean ± SD [2, 3]: −34.0 ± 120
- Enhancing Lesion Volume, Change from baseline at Mon 24, Median [2, 3]: 0
- Number of Enhancing Lesions, Change from baseline to Mon 12, Mean ± SD [2, 3]: −0.5 ± 1.8
- Number of Enhancing Lesions, Change from baseline to Mon 12, Median [2, 3]: 0
- Number of Enhancing Lesions, Change from baseline to Mon 24, Mean ± SD [2, 3]: −0.5 ± 2.4
- Number of Enhancing Lesions, Change from baseline to Mon 24, Median [2, 3]: 0
- Cortical gray matter volume % change from baseline at Month 12, Mean ± SD [2, 4]: −0.72 ± 0.80%
- Cortical gray matter volume % change from baseline at Month 12, Median [2, 4]: −0.67%
- Cortical gray matter volume % change from baseline at Month 24, Mean ± SD [2, 4]: −1.04 ± 0.87%
- Cortical gray matter volume % change from baseline at Month 24, Median [2, 4]: −0.93%
- White matter volume % change from baseline at Month 12, Mean ± SD [2, 4]: −0.20 ± 0.83%
- White matter volume % change from baseline at Month 12, Median [2, 4]: −0.11%
- White matter volume % change from baseline at Month 24, Mean ± SD [2, 4]: −0.54 ± 1.12%
- White matter volume % change from baseline at Month 24, Median [2, 4]: −0.56%
- Whole Brain volume % change from baseline at Month 12, Mean ± SD [2, 4]: −0.50 ± 0.64%
- Whole Brain volume % change from baseline at Month 12, Median [2, 4]: −0.43%
- Whole Brain volume % change from baseline at Month 24, Mean ± SD [2, 4]: −0.78 ± 0.73%
- Whole Brain volume % change from baseline at Month 24, Median [2, 4]: −0.91%
- Whole gray matter volume % change from baseline at Month 12, Mean ± SD [2, 4]: −0.69 ± 0.71%
- Whole gray matter volume % change from baseline at Month 12, Median [2, 4]: −0.68%
- Whole gray matter volume % change from baseline at Month 24, Mean ± SD [2, 4]: −0.95 ± 0.76%
- Whole gray matter volume % change from baseline at Month 24, Median [2, 4]: −0.93%
